Reference: PMC6295285 (Pharmaceutical research, 2018)
Blank lines part the entries; values can stand above or below the molecule they belong to.

Assays:
human OCT2 = biological target: T1, human OCT2 (Homo sapiens, UniProt O15244); assay: Inhibition of metformin uptake in HEK-293 cells overexpressing hOCT2; details: for Effect on hOCT2 activity at low concentrations (hOCT2-enhancer): low but clinically relevant concentrations (less than 10 μM); for Selectivity category hOCT2 versus hMATEs: comparison of IC50 for hOCT2, hMATE1, hMATE2-K
T1 sequence (O15244 1-555): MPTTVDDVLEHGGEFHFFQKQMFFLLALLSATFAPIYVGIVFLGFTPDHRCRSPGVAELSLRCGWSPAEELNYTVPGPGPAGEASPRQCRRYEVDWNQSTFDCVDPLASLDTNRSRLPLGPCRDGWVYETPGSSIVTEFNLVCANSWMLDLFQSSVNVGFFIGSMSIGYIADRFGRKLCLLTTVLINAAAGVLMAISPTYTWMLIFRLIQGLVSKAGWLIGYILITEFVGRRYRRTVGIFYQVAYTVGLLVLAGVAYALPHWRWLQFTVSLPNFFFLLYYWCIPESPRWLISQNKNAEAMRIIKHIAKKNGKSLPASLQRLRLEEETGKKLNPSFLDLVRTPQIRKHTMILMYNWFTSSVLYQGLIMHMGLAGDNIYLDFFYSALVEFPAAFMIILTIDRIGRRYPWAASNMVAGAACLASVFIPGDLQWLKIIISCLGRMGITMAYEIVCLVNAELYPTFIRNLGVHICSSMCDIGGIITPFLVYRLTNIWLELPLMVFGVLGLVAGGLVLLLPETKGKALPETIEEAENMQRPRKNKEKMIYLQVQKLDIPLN

HEK-hOCT2 cells [1] = assay: Cisplatin accumulation in HEK-hOCT2 cells; type: cell-based, human; details: carvedilol 10 μM + cisplatin 100 μM 2 h, then 22 h normal medium
human MATE1 = biological target: T2, human MATE1 (Homo sapiens, UniProt Q96FL8); assay: Inhibition of metformin uptake in HEK-293 cells overexpressing hMATE1; type: cell-based; details: IC50 for inhibition of hMATE1, metformin 50 μM probe substrate, HEK293-hMATE1
T2 sequence (Q96FL8 1-570): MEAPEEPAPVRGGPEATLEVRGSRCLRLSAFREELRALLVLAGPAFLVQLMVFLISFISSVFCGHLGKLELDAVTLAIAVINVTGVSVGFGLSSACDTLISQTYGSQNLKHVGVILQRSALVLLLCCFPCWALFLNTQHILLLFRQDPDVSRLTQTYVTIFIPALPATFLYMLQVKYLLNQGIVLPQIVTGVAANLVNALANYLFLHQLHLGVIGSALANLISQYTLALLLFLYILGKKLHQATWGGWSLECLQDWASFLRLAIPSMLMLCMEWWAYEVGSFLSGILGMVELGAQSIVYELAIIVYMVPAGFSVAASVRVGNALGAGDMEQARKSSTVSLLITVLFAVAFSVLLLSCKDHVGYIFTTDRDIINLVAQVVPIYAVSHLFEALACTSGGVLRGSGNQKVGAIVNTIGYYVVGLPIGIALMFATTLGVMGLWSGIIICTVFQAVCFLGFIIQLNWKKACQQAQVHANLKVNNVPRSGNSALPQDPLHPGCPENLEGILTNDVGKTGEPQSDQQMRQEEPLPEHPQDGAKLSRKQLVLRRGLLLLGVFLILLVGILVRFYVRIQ

C57BL/6J mice = assay: Cisplatin-induced nephrotoxicity in mice; type: in vivo, mouse; details: 72 h
HEK-hOCT2 cells [2] = assay: Cisplatin cytotoxicity, cell viability by CCK-8; type: cell-based, human; details: carvedilol 10 μM + cisplatin 100 μM 2 h, then 22 h
HEK-control cells = assay: Cisplatin accumulation in HEK-control cells; type: cell-based, human; details: carvedilol 10 μM + cisplatin 100 μM 2 h, then 22 h normal medium
mouse Mate1 = biological target: T3, mouse Mate1 (Mus musculus, UniProt Q8K0H1); assay: Inhibition of metformin uptake in HEK-293 cells overexpressing mouse Mate1; type: cell-based
T3 sequence (Q8K0H1 1-567): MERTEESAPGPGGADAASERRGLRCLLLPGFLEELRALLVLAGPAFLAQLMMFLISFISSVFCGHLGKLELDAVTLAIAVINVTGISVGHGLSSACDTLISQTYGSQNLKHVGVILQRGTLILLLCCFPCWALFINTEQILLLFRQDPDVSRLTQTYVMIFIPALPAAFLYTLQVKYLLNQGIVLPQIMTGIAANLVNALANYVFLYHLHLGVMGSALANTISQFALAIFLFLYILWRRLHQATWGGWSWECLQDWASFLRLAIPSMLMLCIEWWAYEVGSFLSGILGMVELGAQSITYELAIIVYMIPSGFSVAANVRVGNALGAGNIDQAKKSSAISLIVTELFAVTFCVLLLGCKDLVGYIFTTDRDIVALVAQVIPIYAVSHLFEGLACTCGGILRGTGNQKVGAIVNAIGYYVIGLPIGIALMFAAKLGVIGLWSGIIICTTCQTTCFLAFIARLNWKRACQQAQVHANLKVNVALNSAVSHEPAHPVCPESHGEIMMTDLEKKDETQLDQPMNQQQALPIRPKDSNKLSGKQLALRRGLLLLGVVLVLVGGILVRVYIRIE

human OCT1 = biological target: T4, human OCT1 (Homo sapiens, UniProt O15245); assay: Inhibition of metformin uptake in HEK-293 cells overexpressing hOCT1; type: cell-based
T4 sequence (O15245 1-554): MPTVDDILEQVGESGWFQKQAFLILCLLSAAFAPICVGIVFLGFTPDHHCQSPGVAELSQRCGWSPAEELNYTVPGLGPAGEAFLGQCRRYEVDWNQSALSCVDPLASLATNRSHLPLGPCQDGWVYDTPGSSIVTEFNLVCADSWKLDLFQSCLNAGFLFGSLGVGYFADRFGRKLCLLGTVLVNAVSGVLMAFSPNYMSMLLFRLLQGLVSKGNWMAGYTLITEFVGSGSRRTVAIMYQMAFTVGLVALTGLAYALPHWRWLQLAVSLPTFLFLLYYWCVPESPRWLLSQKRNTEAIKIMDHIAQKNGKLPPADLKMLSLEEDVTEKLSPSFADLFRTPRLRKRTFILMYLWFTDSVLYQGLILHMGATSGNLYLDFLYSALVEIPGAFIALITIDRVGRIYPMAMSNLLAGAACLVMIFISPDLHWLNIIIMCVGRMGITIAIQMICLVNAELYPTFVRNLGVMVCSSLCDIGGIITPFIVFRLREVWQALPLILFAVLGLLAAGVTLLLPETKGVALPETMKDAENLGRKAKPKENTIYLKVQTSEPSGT

mouse Oct1 = biological target: T5, mouse Oct1 (Mus musculus, UniProt O08966); assay: Inhibition of metformin uptake in HEK-293 cells overexpressing mouse Oct1; type: cell-based
T5 sequence (O08966 1-556): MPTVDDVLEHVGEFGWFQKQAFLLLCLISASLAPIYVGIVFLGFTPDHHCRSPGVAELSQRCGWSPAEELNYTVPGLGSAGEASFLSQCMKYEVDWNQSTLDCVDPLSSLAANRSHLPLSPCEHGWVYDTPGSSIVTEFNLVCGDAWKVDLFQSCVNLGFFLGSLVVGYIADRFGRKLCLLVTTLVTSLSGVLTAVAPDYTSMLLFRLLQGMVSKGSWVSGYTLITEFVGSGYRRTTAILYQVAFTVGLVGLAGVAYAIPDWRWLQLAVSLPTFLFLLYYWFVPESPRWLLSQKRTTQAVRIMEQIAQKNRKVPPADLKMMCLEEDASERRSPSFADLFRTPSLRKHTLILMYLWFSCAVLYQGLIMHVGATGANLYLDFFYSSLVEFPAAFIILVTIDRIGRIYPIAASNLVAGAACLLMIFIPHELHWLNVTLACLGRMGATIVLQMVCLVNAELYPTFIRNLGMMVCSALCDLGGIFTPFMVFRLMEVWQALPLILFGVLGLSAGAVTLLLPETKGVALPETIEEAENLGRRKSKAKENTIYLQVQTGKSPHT

[3] = Metformin pharmacokinetics in mice with carvedilol; type: in vivo, mouse; details: carvedilol 2 mg/kg; at 30, 45 and 60 min
mouse Oct2 = biological target: T6, mouse Oct2 (Mus musculus, UniProt O70577); assay: Inhibition of metformin uptake in HEK-293 cells overexpressing mouse Oct2; type: cell-based
T6 sequence (O70577 1-553): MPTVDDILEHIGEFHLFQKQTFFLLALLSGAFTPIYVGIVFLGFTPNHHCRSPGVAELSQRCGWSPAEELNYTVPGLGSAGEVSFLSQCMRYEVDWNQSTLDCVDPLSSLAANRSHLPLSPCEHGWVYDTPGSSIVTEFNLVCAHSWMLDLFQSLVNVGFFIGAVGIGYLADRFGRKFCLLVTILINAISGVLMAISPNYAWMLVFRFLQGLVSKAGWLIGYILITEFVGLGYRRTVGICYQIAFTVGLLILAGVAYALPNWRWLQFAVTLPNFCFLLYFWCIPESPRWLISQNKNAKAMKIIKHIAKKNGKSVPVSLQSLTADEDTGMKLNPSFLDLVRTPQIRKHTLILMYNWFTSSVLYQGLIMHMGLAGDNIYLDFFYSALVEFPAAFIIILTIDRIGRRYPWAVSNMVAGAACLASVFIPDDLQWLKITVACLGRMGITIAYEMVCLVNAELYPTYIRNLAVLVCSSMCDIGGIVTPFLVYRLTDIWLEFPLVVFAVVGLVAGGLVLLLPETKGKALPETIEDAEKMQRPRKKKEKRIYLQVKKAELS

[4] = cited from earlier work
[5] = carvedilol 2 mg/kg x2 + cisplatin 10 mg/kg

Effect on hOCT2 activity at low concentrations (hOCT2-enhancer) (human OCT2): increase hOCT2 activity
Compound: CC(C)(C)NC(=O)[C@@H]1C[C@@H]2CCCC[C@@H]2CN1C[C@@H](O)[C@H](Cc1ccccc1)NC(=O)[C@H](CC(N)=O)NC(=O)c1ccc2ccccc2n1 [Saquinavir]
Effect on hOCT2-mediated metformin uptake at high concentrations (human OCT2): could inhibit hOCT2-mediated metformin uptake

Selectivity category hOCT2 versus hMATEs (human OCT2): selective hOCT2 inhibitors
Compound: CCCCOc1ccc(CC(=O)NO)cc1 [Bufexamac]

Compound: COc1ccccc1OCCNCC(O)COc1cccc2[nH]c3ccccc3c12 (stereo not shown) [Carvedilol]
Accumulation of cisplatin in HEK-hOCT2 stable cells (HEK-hOCT2 cells [1]): 3.77 ± 0.02 ppm/mg protein
IC50 (human MATE1): 103 µM
Kidney histology (renal damage), co-administration (C57BL/6J mice; [5]): substantially ameliorated
Kim-1 gene transcripts in kidney, co-administration (C57BL/6J mice; [5]): almost be brought down to the normal base
Kidney histology, treatment-only group (C57BL/6J mice; carvedilol only): No visible morphological change
Selectivity category hOCT2 versus hMATEs (human OCT2): selective hOCT2 inhibitors
Cell viability of cisplatin-treated HEK-hOCT2 cells with co-treatment (HEK-hOCT2 cells [2]): significantly rescued
Accumulation of cisplatin in control cells (HEK-control cells): 3.87 ± 0.06 ppm/mg protein
IC50 (mouse Mate1): 67 µM
IC50 (human OCT1): 6.4 µM
IC50 (mouse Oct1): 2.8 µM
Plasma concentrations of metformin compared to vehicle [3]: significantly increased
IC50 (mouse Oct2): 23.1 µM
Time to peak plasma concentration ([4]; after oral administration): 1—2 h
Oral bioavailability ([4]; human, oral): 24%
Plasma binding ([4]; mostly bound to albumin): approximately 95%
Terminal half-life ([4]; oral administration): 6—10 h

Effect on hOCT2 activity at low concentrations (hOCT2-enhancer) (human OCT2): increase hOCT2 activity
Compound: C(=C\c1ccccc1)/CN1CCN(C(c2ccccc2)c2ccccc2)CC1 [Cimnasizine]
Effect on hOCT2-mediated metformin uptake at high concentrations (human OCT2): could inhibit hOCT2-mediated metformin uptake

Selectivity category hOCT2 versus hMATEs (human OCT2): selective hOCT2 inhibitors
Compound: CC(C)C(=O)Nc1ccc([N+](=O)[O-])c(C(F)(F)F)c1 [Flutamide]

Effect on hOCT2 activity at low concentrations (hOCT2-enhancer) (human OCT2): increase hOCT2 activity
Compound: CCC(C)n1ncn(-c2ccc(N3CCN(c4ccc(OCC5COC(Cn6cncn6)(c6ccc(Cl)cc6Cl)O5)cc4)CC3)cc2)c1=O (stereo not shown) [Itraconazole]
Effect on hOCT2-mediated metformin uptake at high concentrations (human OCT2): could inhibit hOCT2-mediated metformin uptake
